Laboratory results from PubChem BioAssay AID1918946 (Molecular Pharmacology Branch, DTP, NCI, 2023).

System: 885512-296-R-J2-PDC complex spheroid viability
Test: Anticancer human tumor 885512-296-R-J2-PDC patient-derived breast carcinoma cell line growth inhibition
Details: for IC50: curve of first compound; for viability, T/C: stronger effect = lower value
How it was run: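 Drug combinations with the LSD1 inhibitor iadademstat tested on tumor cells co-cultured as spheroids with endothelial cells and mesenchymal stem cells. Concentrations descended in half-log increments from clinical Cmax or 10 microM.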
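Note: spheroids exposed to agents for 7 days before viability read.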

Which IC50 (second compound 0.1 µM) does the source give for `CC[C@@]1(O)C(=O)OCc2c1cc1n(c2=O)Cc2cc3c(CN(C)C)c(O)ccc3nc2-1` + NC1CCC(NC2CC2c2ccccc2)CC1 here?
The IC50 was 517 pM.

And the IC50 (second compound 0.316 µM)?
The IC50 was 571 pM.

And the IC50 (second compound 1 µM)?
Its IC50 is 480 pM.

And the IC50 (second compound 3.16 µM)?
The IC50 was 497 pM.

What about the IC50 (second compound 10 µM) of the same compound?
Its IC50 is 398 pM.

And the viability, T/C (second compound 0.1 µM, first compound 0.000316 µM)?
The viability, T/C was 74%.

What about the viability, T/C (second compound 0.1 µM, first compound 0.001 µM) of the same compound?
The viability, T/C was 17.8%.

And the viability, T/C (second compound 0.1 µM, first compound 0.00316 µM)?
Its viability, T/C is 9.2%.

And the viability, T/C (second compound 0.1 µM, first compound 0.01 µM)?
The viability, T/C was 3.46%.

What about the viability, T/C (second compound 0.1 µM, first compound 0.0316 µM) of the same compound?
The viability, T/C was 7.41%.

What about the viability, T/C (second compound 0.1 µM, first compound 0.1 µM) of the same compound?
Its viability, T/C is 12.3%.

And the viability, T/C (second compound 0.316 µM, first compound 0.000316 µM)?
The viability, T/C was 81.8%.

And the viability, T/C (second compound 0.316 µM, first compound 0.001 µM)?
Its viability, T/C is 19.7%.

What about the viability, T/C (second compound 0.316 µM, first compound 0.00316 µM) of the same compound?
Its viability, T/C is 7.03%.

And the viability, T/C (second compound 0.316 µM, first compound 0.01 µM)?
Its viability, T/C is 3.42%.

What about the viability, T/C (second compound 0.316 µM, first compound 0.0316 µM) of the same compound?
Its viability, T/C is 5.16%.

And the viability, T/C (second compound 0.316 µM, first compound 0.1 µM)?
Its viability, T/C is 7.04%.

What about the viability, T/C (second compound 1 µM, first compound 0.000316 µM) of the same compound?
Its viability, T/C is 66.9%.

What about the viability, T/C (second compound 1 µM, first compound 0.001 µM) of the same compound?
The viability, T/C was 20.4%.

What about the viability, T/C (second compound 1 µM, first compound 0.00316 µM) of the same compound?
Its viability, T/C is 6.72%.

And the viability, T/C (second compound 1 µM, first compound 0.01 µM)?
Its viability, T/C is 5.59%.

And the viability, T/C (second compound 1 µM, first compound 0.0316 µM)?
Its viability, T/C is 3.12%.

What about the viability, T/C (second compound 1 µM, first compound 0.1 µM) of the same compound?
Its viability, T/C is 4.36%.

And the viability, T/C (second compound 3.16 µM, first compound 0.000316 µM)?
The viability, T/C was 71.7%.

What about the viability, T/C (second compound 3.16 µM, first compound 0.001 µM) of the same compound?
The viability, T/C was 16.6%.

What about the viability, T/C (second compound 3.16 µM, first compound 0.00316 µM) of the same compound?
The viability, T/C was 5.15%.

And the viability, T/C (second compound 3.16 µM, first compound 0.01 µM)?
The viability, T/C was 6.21%.

And the viability, T/C (second compound 3.16 µM, first compound 0.0316 µM)?
Its viability, T/C is 2.51%.

What about the viability, T/C (second compound 3.16 µM, first compound 0.1 µM) of the same compound?
Its viability, T/C is 2.21%.

And the viability, T/C (second compound 10 µM, first compound 0.000316 µM)?
The viability, T/C was 59.4%.

What about the viability, T/C (second compound 10 µM, first compound 0.001 µM) of the same compound?
Its viability, T/C is 13.6%.

What about the viability, T/C (second compound 10 µM, first compound 0.00316 µM) of the same compound?
The viability, T/C was 5.78%.

And the viability, T/C (second compound 10 µM, first compound 0.01 µM)?
The viability, T/C was 3.89%.

And the viability, T/C (second compound 10 µM, first compound 0.0316 µM)?
The viability, T/C was 2.72%.

What about the viability, T/C (second compound 10 µM, first compound 0.1 µM) of the same compound?
The viability, T/C was 1.8%.

Which IC50 (second compound 0.1 µM) does the source give for `CCc1c2c(nc3ccc(O)cc13)-c1cc3c(c(=O)n1C2)COC(=O)[C@]3(O)CC` + NC1CCC(NC2CC2c2ccccc2)CC1 here?
The IC50 was under 949 pM.

What about the IC50 (second compound 0.316 µM) of the same compound?
Its IC50 is under 949 pM.

What about the IC50 (second compound 1 µM) of the same compound?
The IC50 was under 949 pM.

What about the IC50 (second compound 3.16 µM) of the same compound?
Its IC50 is under 949 pM.

And the IC50 (second compound 10 µM)?
The IC50 was under 949 pM.

What about the viability, T/C (second compound 0.1 µM, first compound 0.000949 µM) of the same compound?
Its viability, T/C is 5.05%.

What about the viability, T/C (second compound 0.1 µM, first compound 0.003 µM) of the same compound?
The viability, T/C was 2.28%.

And the viability, T/C (second compound 0.1 µM, first compound 0.00949 µM)?
The viability, T/C was 7.01%.

And the viability, T/C (second compound 0.1 µM, first compound 0.03 µM)?
Its viability, T/C is 6.9%.

What about the viability, T/C (second compound 0.1 µM, first compound 0.0949 µM) of the same compound?
The viability, T/C was 6.49%.

What about the viability, T/C (second compound 0.1 µM, first compound 0.3 µM) of the same compound?
The viability, T/C was 3.96%.

And the viability, T/C (second compound 0.316 µM, first compound 0.000949 µM)?
Its viability, T/C is 2.42%.

What about the viability, T/C (second compound 0.316 µM, first compound 0.003 µM) of the same compound?
The viability, T/C was 4.76%.

What about the viability, T/C (second compound 0.316 µM, first compound 0.00949 µM) of the same compound?
The viability, T/C was 4.46%.

And the viability, T/C (second compound 0.316 µM, first compound 0.03 µM)?
Its viability, T/C is 6.46%.

And the viability, T/C (second compound 0.316 µM, first compound 0.0949 µM)?
The viability, T/C was 6.66%.

And the viability, T/C (second compound 0.316 µM, first compound 0.3 µM)?
Its viability, T/C is 4.85%.

And the viability, T/C (second compound 1 µM, first compound 0.000949 µM)?
Its viability, T/C is 4.94%.

What about the viability, T/C (second compound 1 µM, first compound 0.003 µM) of the same compound?
Its viability, T/C is 2.3%.

What about the viability, T/C (second compound 1 µM, first compound 0.00949 µM) of the same compound?
Its viability, T/C is 1.74%.

What about the viability, T/C (second compound 1 µM, first compound 0.03 µM) of the same compound?
Its viability, T/C is 1.31%.

What about the viability, T/C (second compound 1 µM, first compound 0.0949 µM) of the same compound?
The viability, T/C was 1.26%.

What about the viability, T/C (second compound 1 µM, first compound 0.3 µM) of the same compound?
Its viability, T/C is 3.93%.

And the viability, T/C (second compound 3.16 µM, first compound 0.000949 µM)?
Its viability, T/C is 1.98%.

And the viability, T/C (second compound 3.16 µM, first compound 0.003 µM)?
The viability, T/C was 2.41%.

And the viability, T/C (second compound 3.16 µM, first compound 0.00949 µM)?
Its viability, T/C is 1.65%.

And the viability, T/C (second compound 3.16 µM, first compound 0.03 µM)?
The viability, T/C was 4.17%.

And the viability, T/C (second compound 3.16 µM, first compound 0.0949 µM)?
The viability, T/C was 1.31%.

What about the viability, T/C (second compound 3.16 µM, first compound 0.3 µM) of the same compound?
Its viability, T/C is 6.19%.

What about the viability, T/C (second compound 10 µM, first compound 0.000949 µM) of the same compound?
Its viability, T/C is 2.47%.

What about the viability, T/C (second compound 10 µM, first compound 0.003 µM) of the same compound?
Its viability, T/C is 1.92%.

And the viability, T/C (second compound 10 µM, first compound 0.00949 µM)?
The viability, T/C was 1.39%.

What about the viability, T/C (second compound 10 µM, first compound 0.03 µM) of the same compound?
The viability, T/C was 3.6%.

What about the viability, T/C (second compound 10 µM, first compound 0.0949 µM) of the same compound?
The viability, T/C was 3.36%.

What about the viability, T/C (second compound 10 µM, first compound 0.3 µM) of the same compound?
Its viability, T/C is 1.14%.
